“Also recorded” adds a separate entry of the source.
Experiments:
H9c2 rat cardiomyocytes [1] = test: BNP mRNA levels in cells by qRT-PCR; assay type: cell-based; settings: 1 μM DOX 2 hr, normalized by β-actin mRNA
Protocol: (§1) FIGS. 1A and 1B show the effect of doxorubicin (DOX) on H9c2 rat cardiomyocytes. Cells were treated for 2 hr with media containing 1 μM DOX, washed and kept for 2, 6 and 24 hr in media without DOX. BNP mRNA levels in H9c2 cells were assessed by qRT-PCR (A) and cell media was collected and extracted with ethyl acetate for 14,15-DHET analyses using ELISA kit (Detroit R&D) (B). *p<0.05;
Normalized BNP levels were decreased 6 hr and 24 hr after 2 hr of DOX treatment (p<0.05) (FIG. 1A) when cardiomyocyte hypertrophy occurred ([…]).
BNP mRNA was assessed in rat H9c2 cells. […] Results were normalized using β-actin mRNA levels using a rat specific primer (13). Our results have shown that BNP levels were decreased 6 and 24 hr after 2 hr of DOX treatment (FIG. 1A) when cell hypertrophy was detected (FIG. 2).

[2] = Cardiotoxicity / LVEF in breast cancer patients after DOX treatment; assay type: in vivo, human
Description: Chemotherapy-associated cardiotoxicity is defined as either a cardiomyopathy with a reduction of left ventricular ejection fraction (LVEF) ≥5% to <55% with symptoms of heart failure or an asymptomatic reduction of LVEF ≥10% to <55% by the Cardiac Review and Evaluation Committee (CREC) (7).

H9c2 rat cardiomyocytes [3] = test: Cell hypertrophy assay (cell surface area, ImageJ); assay type: cell-based; settings: 1 μM DOX 2 hr
Protocol: Cells were treated for 2 hr with media containing 1 μM DOX, washed and kept for 2, 6 and 24 hr in media without DOX. Cell sizes (cell surface area) were measured using image J software. Results expressed as mean±SD (n=6-44);
Increased cell surface area (hypertrophy) was found at 6 hr and 24 hr after DOX treatment (p<0.05) whereas no changes were observed after 2 hr (˜100 cells measured/group) (FIG. 2).
For cell hypertrophy assay, rat H9c2 cells grown overnight in a plate containing a glass cover slip were fixed at 2, 6 and 24 hr after 2 hr 1 μM DOX treatment and stained with hematoxylin and eosin and images were taken using a using a Zeiss Axiovert microscope. ImageJ software was used to measure the surface area of the cells.

rat heart tissue [4] = test: Heart tissue mRNA biomarkers by RT-PCR in DOX-treated female rats; settings: DOX 3 mg/kg/week 2 weeks, no recovery, normalized by β-actin mRNA
Protocol: Rats were euthanized at 48 hr (no recovery) or after 2 weeks (2 weeks recovery) following injection of the rats for 2 weeks with saline (control) or DOX (3 mg/kg/week). BNP mRNA levels in heart were assessed by qRT-PCR and results were normalized by β-actin mRNA (A). […] Results expressed as mean±SD (n=4-6). *p<0.05 and **p<0.01;
A study on serum biomarkers to detect risk of chemotherapy-induced cardiotoxicity was carried out using female rats treated with and without DOX (3 mg/kg/week, i.v. for 2 weeks) (no recovery group: Control and DOX, n=6/group) and with a 2-week recovery period (2 weeks recovery group: Control and DOX, n=6/group).
BNP mRNA levels in heart tissues were measured by reverse-transcription/real time PCR (Sybr green) and normalized using β-actin mRNA levels (13).
Heart total RNA was extracted using the TRIzol method, cDNA was synthesized using High Capacity cDNA Reverse Transcript Kit (Applied Biosystems). Levels of mRNA in cardiomyocytes were measured by real time PCR (Sybr green) using rat specific primers.

[5] = test system: plasma of breast cancer patient; test: 14,15-DHET nanowell label-free analysis of patient plasma; assay type: in vivo, human; settings: Patient #4, 10-fold diluted plasma, after vs before 3 months DOX, n=4
Protocol: The plasma samples of Patient #4 (10-fold diluted) who developed DOX-dependent cardiotoxicity 3 and 6 months after completion of the 3 months DOX treatment were obtained before and after 3 months DOX treatment (FIG. 4).
The bare gold surface of the 8-channel 90 nm or 200 nm nanowell electrode (Detroit R&D) was coated with a self-assembly monolayer (SAM) by incubating the electrode with 10 mM of 11-mercaptoundecanoic acid (MUA) (Sigma) for 1 hr at room temperature and activated using 50 mM EDC and 50 mM NHS. The 14,15-DHET IgG (Detroit R&D) (FIG. 6A) or TnI IgG (Detroit R&D) (FIG. 6B) in PBS (2.5 μg/ml) was added to the EDC/NHS-activated electrode. The IgG level to obtain optimal results was experimentally obtained by using electrodes coated with various concentrations of IgG ranging 1 to 10 μg/ml.

H9c2 rat cardiomyocytes [6] = test: MTT cell viability assay; assay type: cell-based; settings: 1 μM DOX 2 hr, then fresh media 24 hr; compared to untreated control cells
Protocol: Cell viability was determined using the 3-[4,5-dimethylthiazol-2-yl]-2,5-diphenyltetrazolium bromide (MTT) assay (13) for cells incubated with and without 1 μM of DOX in media for 2 hr followed by fresh media for another 24 hours. The DOX treated cells maintained more than 90% cell viability compared to untreated control cells.
Rat H9c2 cell line was purchased from American Type Culture Collection (Manassas, Va.) and cultured on polystyrene culture plates in a humidified incubator at 37° C. in an atmosphere of 5% CO2 and 95% air. The H9c2 cells were grown in high glucose DMEM supplemented with 4.5 g/l glucose, 0.15% sodium bicarbonate, 0.11% sodium pyruvate, 10% fetal bovine serum, […], 100 IU/ml penicillin and 10 μg/ml streptomycin. When cells reached 80-90% confluency, media was replaced with media containing 1 μM DOX (Sigma) dissolved in DMSO. Cells were treated for 2 hr and collected immediately (0 hr) or washed and kept for 2, 6 and 24 hr in media without DOX.
The effect of DOX on cell viability was determined by 3-[4,5-dimethylthiazol-2-yl]-2,5-diphenyltetrazolium bromide (MTT) assay (13).

H9c2 rat cardiomyocytes [7] = test: 14,15-DHET in cell media by ELISA; assay type: cell-based; settings: 1 μM DOX 2 hr
Protocol: as §1
H9c2 cardiomyocytes were treated for 2 hr with and without 1 μM DOX. Levels of 14,15-DHET in cell media increased ˜3-fold (p<0.05) after a 2 hr recovery period prior to detection of cellular hypertrophy at 6 hr and 24 hr recovery periods.
Levels of 14,15-DHET in cardiomyocyte (H9c2 cell) media were assessed by the Detroit R&D 14,15-DHET ELISA. Media, 2 ml, was extracted with 2 ml […]. and levels of 14,15-DHET increased after 2 hr, 6 hr and 24 hr following 2 hr DOX treatment (2 hr, 6 hr and 24 hr recovery) (FIG. 1B).

rat heart tissue [8] = test: Histological analysis of heart tissue of DOX-treated rats; assay type: in vivo; settings: DOX 3 mg/kg/week 2 weeks, 2-week recovery, 40× magnification
Protocol: Heart tissues were dehydrated, imbedded in paraffin and sliced. Slices were incubated in Mayer's hematoxylin reagent (ScyTek) for 5 min and covered with bluing reagent (ScyTek) for 15 seconds and eosin Y (ScyTek) solution for 3 minutes. Images of the rat cardiomyocyte were taken using a Zeiss Axiovert 200 microscope with RT Insight camera and SPOT Advanced Imaging software in 40× magnification at the Microscopy and Imaging Facility at Wayne State University.
Presence of vacuolization in heart tissue, a sign of cardiotoxicity (14), was not observed at 40× magnification.

Compound: COc1cccc2c1C(=O)c1c(O)c3c(c(O)c1C2=O)C[C@@](O)(C(=O)CO)C[C@@H]3O[C@H]1C[C@H](N)[C@H](O)[C@H](C)O1 [DOX, doxorubicin]
- increase of BNP mRNA (H9c2 rat cardiomyocytes [1]; 2 hr recovery): ~4 fold
- BNP mRNA levels (H9c2 rat cardiomyocytes [1]; 6 hr and 24 hr recovery): decreased; also recorded: lower than control
- cardiotoxicity detected ([2]; 5 breast cancer patients, at completion of 3 months of DOX treatment): no cardiotoxicity
- reduction of LVEF ([2]; Patient #3, 3 months after 3 months of DOX treatment was completed): ~28%
- reduction of LVEF ([2]; Patient #4, 3 months after 3 months of DOX treatment was completed): 22%
- reduction of LVEF ([2]; Patients #3 and #4, 6 months after 3 months of DOX treatment was completed): around 20%
- reduction of LVEF ([2]; Patients #3 and #4, at 3 and 6 months after DOX treatment was completed): higher than 20%
- change of LVEF ([2]; the other patients (#1, #2, #5), at 3 and 6 months after DOX treatment): no significant changes
- cell surface area (hypertrophy) (H9c2 rat cardiomyocytes [3]; 2 hr recovery): no changes
- cell surface area (hypertrophy) (H9c2 rat cardiomyocytes [3]; 6 hr and 24 hr recovery): increased
- Heart tissue BNP mRNA (rat heart tissue [4]): No change
- Heart tissue MPO mRNA (rat heart tissue [4]): No change
- Heart tissue S100A9 mRNA (rat heart tissue [4]): No change
- increase of plasma 14,15-DHET level (nanowell) [5]: ~20 fold
- cell viability (H9c2 rat cardiomyocytes [6]): more than 90%
- 14,15-DHET levels in cell media (H9c2 rat cardiomyocytes [7]; 6 and 24 hr recovery): remained elevated; also recorded: increased
- increase of 14,15-DHET in cell media (H9c2 rat cardiomyocytes [7]; 2 hr recovery): ~3 fold
- vacuolization / heart tissue damage (histology) (rat heart tissue [8]): no vacuolization or heart tissue damage; also recorded: not observed

From patent publication US11519922B2, “Methods for identifying risk of chemotherapy-induced cardiotoxicity and targeted medical intervention” (Detroit R&D, Inc., priority 2018, dated 2022)
